According to patent US20030044412A1, “Membrane estrogen receptor-directed therapy in breast cancer” (priority 2002, published 2003):
Like-named read-outs stand apart in the source and are kept apart here.

Key:
[1] = system: MCF-7 human breast cancer cells; assay: Assay of cell proliferation in vitro (cell counts); assay type: cell-based; conditions: for cell growth after brief treatment with BSA conjugate: 0.5 μM for 10 min, 72 h in estrogen-free media
[2] = system: Akt kinase; assay: Akt kinase activity (phosphorylated GSK-3 densitometry) in MCF-7 cells; assay type: cell-based, human
[3] = system: MAPK, ERK-1 (p44) and ERK-2 (p42); assay: p44/42 MAPK phosphorylation/activity in MCF-7 cells; assay type: cell-based, human
[4] = system: surface membrane ER of MCF-7 (MCF-7 PAR) breast cancer cells; assay: Membrane labeling with E2β-BSA-FITC, fluorescent microscopy and flow cytometry; assay type: binding, human
[5] = system: MAPK, ERK-1 (p44) and ERK-2 (p42); conditions: independent report (40); cited from earlier work
[6] = system: estrogen receptor; assay: Serine phosphorylation of estrogen receptor in human breast cancer cells; assay type: cell-based; conditions: prior exposure, 15 minutes after estrogen
Procedure: FIG. 12 is a gel showing that the MAPKK (MEK) inhibitor, PD 98059 (PD), reduces estrogen (E2)-induced serine phosphorylation of estrogen receptor. Serine phosphorylation of estrogen receptor in human breast cancer cells was assessed at 15-60 min after treatment with E2 alone or in combination with PD 98059
This blockade of estrogen-induced MAP kinase activation by PD 980959 results in the suppression of estrogen-induced growth of MCF-7 breast cancer cells (see FIG. 13).

[7] = molecular target: plasma membranes from MCF-7 human breast cancer cells (membrane-associated estrogen receptor) (Homo sapiens, UniProt P03372); conditions: 100-fold molar excess of competitor
[8] = molecular target: T1, HER-2 receptor / estrogen receptor association (Homo sapiens, UniProt P04626+P21860); assay: Immunoprecipitation/Western blot of HER-2 receptor with ER; assay type: cell-based; conditions: 10 nM, 5-60 minutes, MCF-7 cells
T1 construct: endogenous in cells; host or cells: MCF-7 PAR
Procedure: MCF-7 breast cancer cells were treated in vitro for 5-60 minutes with 10 nM heregulin, a ligand known to activate HER-2/HER-3 receptors (3). Lysates were prepared and processed as described before (3). Samples were immunoprecipitated with anti-HER-2 antibody (IP:HER-2 receptor) prior to electrophoresis and Western blotting with anti-ER antibody H222 (IB: estrogen receptor). Estrogen receptor normally occurs as a 65- to 70-kd protein (3). The experiment shown here is representative of results from 4 other experiments. In independent experiments in which samples were immunoprecipitated with anti-ER antibody prior to electrophoresis and Western blotting with anti-HER-2 antibody, a similar association between ER and HER-2 receptors was found.
To further evaluate prior reports of cross-communication between ER and HER-2 receptors (3,24,29,54), MCF-7 PAR cells were treated in vitro with heregulin, a ligand for activation of HER-2/HER-3 receptor heterodimers (3). […] MCF-7 breast cancer cells were treated in vitro for 5-60 minutes with 10 nM heregulin, a ligand known to activate HER-2/HER-3 receptors (3). Lysates were prepared and processed as described before (3). Samples were immunoprecipitated with anti-HER-2 antibody (IP: HER-2 receptor) prior to electrophoresis and Western blotting with anti-ER antibody H222 (IB: estrogen receptor). […]

6 keto-17α-estradiol 6-(o-carboximethyloxime:BSA [Ab E2α-BSA]
cell growth after brief treatment with BSA conjugate [1]: not

17β-estradiol 17-hemisuccinate covalently linked to bovine serum albumin [Ab E2β-BSA]
cell growth after brief treatment with BSA conjugate [1]: stimulates cell growth | proliferative response to short-term treatment ([1]; 10 min treatment, counted after 48 hrs in estrogen-free media, P<0.001): stimulate cell growth | activation of Akt kinase ([2]; 10 nM E2β or 0.5 μM E2β-BSA for 20 min): significant activation | phosphorylation of MAPK isoforms ([3]; 10 nM E2β, E2α, 0.5 μM BSA conjugates): phosphorylation of MAPK isoforms is again evident

N#CC(=C(/N)Sc1ccccc1N)/C(C#N)=C(\N)Sc1ccccc1N [Ab U0126]
Inhibition of MCF-7 cell growth ([1]; 10 μM for 2 h before VH, 10 nM E2 or 1 μM E2-BSA, 72 h): Inhibition | inhibition of MAPK phosphorylation/activation induced by E2β or E2β-BSA ([3]; Ab2 10 μg/ml 2 h or U0126 25 μM 90 min preincubation): prevented activation

C[C@]12CC[C@@H]3c4ccc(O)cc4C[C@@H](CCCCCCCCC[S+]([O-])CCCC(F)(F)C(F)(F)F)[C@H]3[C@@H]1CC[C@@H]2O (stereo partly drawn) [ICI 182,780]
blockade of proliferative effect of E2β-BSA ([1]; 10 nM ICI 182,780 with 200 nM E2-BSA, 10 min, 48 hrs): blocked | blockade of proliferative effect of E2β-BSA ([1]; 0.5 μM E2β-BSA 10 min, 72 h): blocked | inhibition of estrogen-induced Akt kinase activation ([2]; preincubation: Ab2 10 μg/ml, ICI 182,780 1 μM, LY294002 10 μM): inhibition | competition for E2β-BSA-FITC surface binding (flow cytometry) [4]: significant reduction | competition for membrane-associated binding of E2β-BSA-FITC [4]: competitively reduced | inhibition of estrogen-induced MAPK activity in MCF-7 cells [5]: inhibit

COc1cccc(-c2cc(=O)c3ccccc3o2)c1N [PD 98059]
suppression of estrogen-induced growth ([1]; 20 micromolar inhibitor, estradiol-17β at 2 nM): suppression | suppression of estrogen-induced serine phosphorylation of the estrogen receptor [6]: suppressed | blockade of estradiol activation of MAP kinase ([3]; pre-treatment, 20 μM): blocked

CC(=O)[C@H]1CC[C@H]2[C@@H]3CCC4=CC(=O)CC[C@]4(C)[C@H]3CC[C@]12C [progesterone]
suppression of [3H]E2β binding to PM by unlabeled competing steroid [7]: essentially uninfluenced | competition for membrane-associated binding of E2β-BSA-FITC ([4]; MCF-7 PAR cells, Ab 1 at 1 μg/ml): not | competition for E2β-BSA-FITC surface binding (flow cytometry) ([4]; MCF-7 cells, P<0.01): not effective

C[C@]12CC[C@H]3[C@@H](CCC4=CC(=O)CC[C@@]43C)[C@@H]1CC[C@@H]2O [testosterone]
suppression of [3H]E2β binding to PM by unlabeled competing steroid [7]: essentially uninfluenced

heregulin
physical association of HER-2 receptor with estrogen receptor [8]: promotes physical association
